Source: patent US20070154567A1, “Use of mercury to treat cancer” (priority 2006, published 2007)
Where “and” joins values, the source holds several entries; their conditions need not be identical. Equal values may be shown once.

Test system: metastatic hepatocellular carcinoma
Assay: Oral inorganic mercury (II) treatment of a pet Husky after tumor removal: blood data and clinical follow-up
Type: in vivo, dog
Design: Corrected Calcium / MCV / MCH / MCHC / Neutrophils, absolute / Bands / Lymphocytes, absolute / Monocytes, absolute / Eosinophils, absolute / Basophils, absolute: unit not given here
Experimental: A 10 yrs old female Husky, 54 lbs was diagnosed with metastatic hepatocellular carcinoma. The tumor was surgically removed prior to treatment. The prognosis after the surgery was poor with 1-2 months of life expectancy.
The 90-day inorganic mercury (II) treatment consisted of two 30-day treatment courses and one 30-day interval period. The formulation contained 1 mM mercury acetate in 20 mM sodium acetate buffer, pH 4.5, with 100 mM sucrose and 150 mM sodium chloride additives. The formulation was introduced orally to the pet three times a day 1 hour before food at 0.5 micromole Hg^2+/kg/day. In the beginning of treatment the dog had high levels of alkaline phosphatase (ALP) and alanine transferase (ALT), two liver enzymes known to be associated with liver tumor progression (de Oliveira e Silva et al., Arq Gastroenterol. 1990, 27(2):83-94). […] On Day 3 ALP and ALT were 1950 U/L and 119 U/L, respectively. On day 30 ALP dropped to 495 U/L, whereas ALT was decreased to 27 U/L. Decreases in ALP and ALT levels were correlated well with the improvement of dog's general condition during the first treatment course. During the second treatment course, according to owner's and veterinarian's notes, the dog continued to show improvement and at the end of the treatment period it acted as a healthy dog. Unfortunately, the owner chose not to take blood tests after day 30.

With `CC(=O)[O-].CC(=O)[O-].[Hg+2]` [inorganic mercury (II), mercury acetate] the “health / cancer status of the dog” value (10 months after treatment) was “remains in good health and is apparently cancer-free”, the “ALT (SGPT)” value (Day 3) was 119 U/L and 119 (H) U/L and the “AST (SGOT)” value (Day 3) was 30 U/L. For the same compound, the Albumin (Day 3) was 3.1 g/dL, the “Albumin/Globulin Ratio” value (Day 3) was 1.1 and the “Alkaline Phosphatase (ALP)” value (Day 3) was 1950 U/L and 1950 (H) U/L. The Amylase (Day 3) was 369 U/L, the “BUN/Creatinine Ratio” value (Day 3) was 17 and the Bands (Day 3) was 0. For the same compound, the “Basophils, absolute” value (Day 3) was 0, the CPK (Day 3) was 161 U/L and the Calcium (Day 3) was 9.4 mg/dL. For the same compound, the Chloride (Day 3) was 114 mE/L, the Cholesterol (Day 3) was 250 mg/dL and the “Corrected Calcium” value (Day 3) was 9.8. For the same compound, the Creatinine (Day 3) was 1.0 mg/dL, the “Eosinophils, (%)” value (Day 3) was 7% and the “Eosinophils, absolute” value (Day 3) was 812. For the same compound, the Globulin (Day 3) was 2.8 g/dL, the Glucose (Day 3) was 94 mg/dL and the Hematocrit (Day 3) was 43.1%. The Hemoglobin (Day 3) was 14.7 g/dL, the “Lymphocytes, (%)” value (Day 3) was 18% and the “Lymphocytes, absolute” value (Day 3) was 2088. It also gave an MCH (Day 3) of 22.3, an MCHC (Day 3) of 34.1 and an MCV (Day 3) of 65. For the same compound, the “Monocytes, (%)” value (Day 3) was 4%, the “Monocytes, absolute” value (Day 3) was 464 and the “Neutrophils, (%)” value (Day 3) was 71%. For the same compound, the “Neutrophils, absolute” value (Day 3) was 8236, the Phosphorus (Day 3) was 3.8 mg/dL and the Platelet count (Day 3) was 394 10^3/microl. For the same compound, the Potassium (Day 3) was 4.5 mE/L, the RBC (Day 3) was 6.59 10^6/microl and the Sodium (Day 3) was 149 mE/L. For the same compound, the “Total Billirubin” value (Day 3) was 0.1 mg/dL, the “Total Protein” value (Day 3) was 5.9 g/dL and the “Urea Nitrogen” value (Day 3) was 17 mg/dL. For the same compound, the WBC (Day 3) was 11.6 10^3/microl, the “ALT (SGPT)” value (Day 9) was 51 U/L and the “AST (SGOT)” value (Day 9) was 18 U/L. The Albumin (Day 9) was 3.2 g/dL, the “Albumin/Globulin Ratio” value (Day 9) was 1.1 and the “Alkaline Phosphatase (ALP)” value (Day 9) was 1368 (H) U/L. The Amylase (Day 9) was 348 U/L, the “BUN/Creatinine Ratio” value (Day 9) was 8 and the Bands (Day 9) was 0. For the same compound, the “Basophils, absolute” value (Day 9) was 0, the CPK (Day 9) was 119 U/L and the Calcium (Day 9) was 9.8 mg/dL. The Chloride (Day 9) was 115 mE/L, the Cholesterol (Day 9) was 237 mg/dL and the “Corrected Calcium” value (Day 9) was 10.1. For the same compound, the Creatinine (Day 9) was 1.0 mg/dL, the “Eosinophils, (%)” value (Day 9) was 3% and the “Eosinophils, absolute” value (Day 9) was 405. The Globulin (Day 9) was 3.0 g/dL, the Glucose (Day 9) was 93 mg/dL and the Hematocrit (Day 9) was 53.1%. The Hemoglobin (Day 9) was 17.4 g/dL, the “Lymphocytes, (%)” value (Day 9) was 15% and the “Lymphocytes, absolute” value (Day 9) was 2025. For the same compound, the MCH (Day 9) was 21.8, the MCHC (Day 9) was 32.8 and the MCV (Day 9) was 67. The “Monocytes, (%)” value (Day 9) was 3%, the “Monocytes, absolute” value (Day 9) was 405 and the “Neutrophils, (%)” value (Day 9) was 79%. For the same compound, the “Neutrophils, absolute” value (Day 9) was 10665, the Phosphorus (Day 9) was 3.8 mg/dL and the Platelet count (Day 9) was 406 (H) 10^3/microl. The Potassium (Day 9) was 4.7 mE/L, the RBC (Day 9) was 7.97 10^6/microl and the Sodium (Day 9) was 152 mE/L. The “Total Billirubin” value (Day 9) was 0.1 mg/dL, the “Total Protein” value (Day 9) was 6.2 g/dL and the “Urea Nitrogen” value (Day 9) was 8 mg/dL. For the same compound, the WBC (Day 9) was 13.5 10^3/microl, the “ALT (SGPT)” value (Day 30) was 27 U/L and the “AST (SGOT)” value (Day 30) was 26 U/L. For the same compound, the Albumin (Day 30) was 3.4 g/dL, the “Albumin/Globulin Ratio” value (Day 30) was 1.1 and the “Alkaline Phosphatase (ALP)” value (Day 30) was 495 U/L and 495 (H) U/L. The Amylase (Day 30) was 349 U/L, the “BUN/Creatinine Ratio” value (Day 30) was 16 and the Bands (Day 30) was 0. For the same compound, the “Basophils, absolute” value (Day 30) was 0, the CPK (Day 30) was 488 U/L and the Calcium (Day 30) was 10.3 mg/dL. The Chloride (Day 30) was 117 mE/L, the Cholesterol (Day 30) was 248 mg/dL and the “Corrected Calcium” value (Day 30) was 10.4. The Creatinine (Day 30) was 0.9 mg/dL, the “Eosinophils, (%)” value (Day 30) was 6% and the “Eosinophils, absolute” value (Day 30) was 504. The Globulin (Day 30) was 3.0 g/dL, the Glucose (Day 30) was 113 mg/dL and the Hematocrit (Day 30) was 50.3%. The Hemoglobin (Day 30) was 15.8 g/dL, the “Lymphocytes, (%)” value (Day 30) was 17% and the “Lymphocytes, absolute” value (Day 30) was 1428. It also gave an MCH (Day 30) of 20.9, an MCHC (Day 30) of 31.4 and an MCV (Day 30) of 66. The “Monocytes, (%)” value (Day 30) was 4%, the “Monocytes, absolute” value (Day 30) was 336 and the “Neutrophils, (%)” value (Day 30) was 73%. The “Neutrophils, absolute” value (Day 30) was 6132, the Phosphorus (Day 30) was 3.3 mg/dL and the Platelet count (Day 30) was 385 10^3/microl. For the same compound, the Potassium (Day 30) was 4.1 mE/L, the RBC (Day 30) was 7.57 10^6/microl and the Sodium (Day 30) was 152 mE/L. The “Total Billirubin” value (Day 30) was 0.1 mg/dL, the “Total Protein” value (Day 30) was 6.4 g/dL and the “Urea Nitrogen” value (Day 30) was 14 mg/dL. The WBC (Day 30) was 8.4 10^3/microl and the “levels of ALP and ALT” value (during the first treatment course) was “dramatically decreased”.
